Results taken from the supplement of paper PMC10307832.

Tests used:
Test in all cases: relative viability (nuclei count vs DMSO), 5 days (fraction); higher = more cells survive
Vismodegib + Alpelisib = compound: CS(=O)(=O)c1ccc(C(=O)Nc2ccc(Cl)c(-c3ccccn3)c2)c(Cl)c1 [Vismodegib] + Cc1nc(NC(=O)N2CCC[C@H]2C(N)=O)sc1-c1ccnc(C(C)(C)C(F)(F)F)c1 [Alpelisib] (partner 2 µM)
Procedure, shortened: (§1)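 Lung cancer cell lines were pin-tool dosed in 1536-well plates on the day after seeding, with either a lone drug or a fixed anchor-drug dose plus five library-drug doses (not always all listed) in √10 steps. Nuclei were counted on 4× images after 5 days. Relative viability is the ratio of treated-well to vehicle-well nuclei counts, with each value a median of duplicate plates.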

Vismodegib + Decitabine = compound: CS(=O)(=O)c1ccc(C(=O)Nc2ccc(Cl)c(-c3ccccn3)c2)c(Cl)c1 [Vismodegib] + Nc1ncn([C@H]2C[C@H](O)[C@@H](CO)O2)c(=O)n1 [Decitabine] (partner 2 µM)
Procedure, shortened: as §1

Ruxolitinib + Vorinostat = compound: N#CC[C@H](C1CCCC1)n1cc(-c2ncnc3[nH]ccc23)cn1 [Ruxolitinib] + O=C(CCCCCCC(=O)Nc1ccccc1)NO [Vorinostat] (partner 1 µM)
Procedure, shortened: as §1

[1] = compound: N#CC[C@H](C1CCCC1)n1cc(-c2ncnc3[nH]ccc23)cn1 [Ruxolitinib] + CC(=O)c1c(C)c2cnc(Nc3ccc(N4CCNCC4)cn3)nc2n(C2CCCC2)c1=O [Palbociclib] (partner 0.5 µM)
Procedure, shortened: as §1

With NCI-H1395 the relative viability (Vismodegib + Alpelisib; first compound 0.08 µM) was 0.997, the relative viability (Vismodegib + Alpelisib; first compound 0.253 µM) was 0.966 and the relative viability (Vismodegib + Alpelisib; first compound 0.8 µM) was 0.961. It also gave a relative viability (Vismodegib + Alpelisib; first compound 2.53 µM) of 0.944, a relative viability (Vismodegib + Alpelisib; first compound 8 µM) of 1.14 and a relative viability (Vismodegib + Decitabine; first compound 0.08 µM) of 0.736. The relative viability (Vismodegib + Decitabine; first compound 0.253 µM) was 0.696, the relative viability (Vismodegib + Decitabine; first compound 0.8 µM) was 0.693 and the relative viability (Vismodegib + Decitabine; first compound 2.53 µM) was 0.71. For the same cell line, the relative viability (Vismodegib + Decitabine; first compound 8 µM) was 0.727, the relative viability (Ruxolitinib + Vorinostat; first compound 0.08 µM) was 0.577 and the relative viability (Ruxolitinib + Vorinostat; first compound 0.253 µM) was 0.506. It also gave a relative viability (Ruxolitinib + Vorinostat; first compound 0.8 µM) of 0.743, a relative viability (Ruxolitinib + Vorinostat; first compound 2.53 µM) of 0.717 and a relative viability (Ruxolitinib + Vorinostat; first compound 8 µM) of 0.654. For the same cell line, the relative viability ([1]; first compound 0.08 µM) was 0.596, the relative viability ([1]; first compound 0.253 µM) was 0.555 and the relative viability ([1]; first compound 0.8 µM) was 0.674. The relative viability ([1]; first compound 2.53 µM) was 0.636 and the relative viability ([1]; first compound 8 µM) was 0.572.
Work on NCI-H2170 yielded a relative viability (Vismodegib + Alpelisib; first compound 0.08 µM) of 0.836, a relative viability (Vismodegib + Alpelisib; first compound 0.253 µM) of 0.814 and a relative viability (Vismodegib + Alpelisib; first compound 0.8 µM) of 0.872. For the same cell line, the relative viability (Vismodegib + Alpelisib; first compound 2.53 µM) was 0.836, the relative viability (Vismodegib + Alpelisib; first compound 8 µM) was 0.794 and the relative viability (Vismodegib + Decitabine; first compound 0.08 µM) was 0.489. The relative viability (Vismodegib + Decitabine; first compound 0.253 µM) was 0.477, the relative viability (Vismodegib + Decitabine; first compound 0.8 µM) was 0.455 and the relative viability (Vismodegib + Decitabine; first compound 2.53 µM) was 0.463. It also gave a relative viability (Vismodegib + Decitabine; first compound 8 µM) of 0.467, a relative viability (Ruxolitinib + Vorinostat; first compound 0.08 µM) of 0.804 and a relative viability (Ruxolitinib + Vorinostat; first compound 0.253 µM) of 0.796. It also gave a relative viability (Ruxolitinib + Vorinostat; first compound 0.8 µM) of 0.889, a relative viability (Ruxolitinib + Vorinostat; first compound 2.53 µM) of 0.794 and a relative viability (Ruxolitinib + Vorinostat; first compound 8 µM) of 0.65. It also gave a relative viability ([1]; first compound 0.08 µM) of 0.382, a relative viability ([1]; first compound 0.253 µM) of 0.39 and a relative viability ([1]; first compound 0.8 µM) of 0.412. The relative viability ([1]; first compound 2.53 µM) was 0.359 and the relative viability ([1]; first compound 8 µM) was 0.407.
LOU-NH91 gave a relative viability (Vismodegib + Alpelisib; first compound 0.08 µM) of 0.693, a relative viability (Vismodegib + Alpelisib; first compound 0.253 µM) of 0.782 and a relative viability (Vismodegib + Alpelisib; first compound 0.8 µM) of 0.699. For the same cell line, the relative viability (Vismodegib + Alpelisib; first compound 2.53 µM) was 0.695, the relative viability (Vismodegib + Alpelisib; first compound 8 µM) was 0.755 and the relative viability (Vismodegib + Decitabine; first compound 0.08 µM) was 0.796. The relative viability (Vismodegib + Decitabine; first compound 0.253 µM) was 0.806, the relative viability (Vismodegib + Decitabine; first compound 0.8 µM) was 0.84 and the relative viability (Vismodegib + Decitabine; first compound 2.53 µM) was 0.819. The relative viability (Vismodegib + Decitabine; first compound 8 µM) was 0.81, the relative viability (Ruxolitinib + Vorinostat; first compound 0.08 µM) was 0.864 and the relative viability (Ruxolitinib + Vorinostat; first compound 0.253 µM) was 0.886. It also gave a relative viability (Ruxolitinib + Vorinostat; first compound 0.8 µM) of 0.952, a relative viability (Ruxolitinib + Vorinostat; first compound 2.53 µM) of 0.897 and a relative viability (Ruxolitinib + Vorinostat; first compound 8 µM) of 0.917. For the same cell line, the relative viability ([1]; first compound 0.08 µM) was 0.61, the relative viability ([1]; first compound 0.253 µM) was 0.526 and the relative viability ([1]; first compound 0.8 µM) was 0.52. The relative viability ([1]; first compound 2.53 µM) was 0.532 and the relative viability ([1]; first compound 8 µM) was 0.53.
NCI-H647 gave a relative viability (Vismodegib + Alpelisib; first compound 0.08 µM) of 1.09, a relative viability (Vismodegib + Alpelisib; first compound 0.253 µM) of 0.979 and a relative viability (Vismodegib + Alpelisib; first compound 0.8 µM) of 1.15. It also gave a relative viability (Vismodegib + Alpelisib; first compound 2.53 µM) of 0.798, a relative viability (Vismodegib + Alpelisib; first compound 8 µM) of 1.45 and a relative viability (Vismodegib + Decitabine; first compound 0.08 µM) of 0.38. The relative viability (Vismodegib + Decitabine; first compound 0.253 µM) was 0.327, the relative viability (Vismodegib + Decitabine; first compound 0.8 µM) was 0.38 and the relative viability (Vismodegib + Decitabine; first compound 2.53 µM) was 0.385. For the same cell line, the relative viability (Vismodegib + Decitabine; first compound 8 µM) was 0.409, the relative viability (Ruxolitinib + Vorinostat; first compound 0.08 µM) was 0.694 and the relative viability (Ruxolitinib + Vorinostat; first compound 0.253 µM) was 0.729. The relative viability (Ruxolitinib + Vorinostat; first compound 0.8 µM) was 0.683, the relative viability (Ruxolitinib + Vorinostat; first compound 2.53 µM) was 0.538 and the relative viability (Ruxolitinib + Vorinostat; first compound 8 µM) was 0.286. The relative viability ([1]; first compound 0.08 µM) was 0.523, the relative viability ([1]; first compound 0.253 µM) was 0.443 and the relative viability ([1]; first compound 0.8 µM) was 0.44. The relative viability ([1]; first compound 2.53 µM) was 0.344 and the relative viability ([1]; first compound 8 µM) was 0.346.
In the case of LXF-289, the relative viability (Vismodegib + Alpelisib; first compound 0.08 µM) is reported as 1, the relative viability (Vismodegib + Alpelisib; first compound 0.253 µM) is reported as 0.993 and the relative viability (Vismodegib + Alpelisib; first compound 0.8 µM) is reported as 1.07. It also gave a relative viability (Vismodegib + Alpelisib; first compound 2.53 µM) of 0.994, a relative viability (Vismodegib + Alpelisib; first compound 8 µM) of 1.04 and a relative viability (Vismodegib + Decitabine; first compound 0.08 µM) of 0.324. It also gave a relative viability (Vismodegib + Decitabine; first compound 0.253 µM) of 0.414, a relative viability (Vismodegib + Decitabine; first compound 0.8 µM) of 0.369 and a relative viability (Vismodegib + Decitabine; first compound 2.53 µM) of 0.363. For the same cell line, the relative viability (Vismodegib + Decitabine; first compound 8 µM) was 0.431, the relative viability (Ruxolitinib + Vorinostat; first compound 0.08 µM) was 0.744 and the relative viability (Ruxolitinib + Vorinostat; first compound 0.253 µM) was 0.818. For the same cell line, the relative viability (Ruxolitinib + Vorinostat; first compound 0.8 µM) was 0.793, the relative viability (Ruxolitinib + Vorinostat; first compound 2.53 µM) was 0.714 and the relative viability (Ruxolitinib + Vorinostat; first compound 8 µM) was 0.705. For the same cell line, the relative viability ([1]; first compound 0.08 µM) was 0.539, the relative viability ([1]; first compound 0.253 µM) was 0.598 and the relative viability ([1]; first compound 0.8 µM) was 0.626. It also gave a relative viability ([1]; first compound 2.53 µM) of 0.599 and a relative viability ([1]; first compound 8 µM) of 0.565.
